Reference: US5004756A, “Anti-cancer activity potentiator” (priority 1988, dated 1991)

Assays:
[1] = tested on: V79/S; assay: Anti-cancer activity potentiating action, colony formation, V79/S parent cells (A-III); format: cell-based, Chinese hamster; details: Cricetulus griseus; V79/S; alone; Table 6; read-out: IC50, anti-cancer agent alone
Procedure: (§1) The anti-cancer activity potentiating action of the malate of formula (I) was examined using Chinese hamster cells (sensitive cell line V79/S and ADM-resistant cell line V79/ADM), human hepatoma cells (sensitive cell line PLC/S and colchicin-resistant cell line PLC/Col) and mouse leukemia cells (sensitive cell line L5178Y/S) and aclarubicin-resistant cell line L5178Y/ACR).
(§2) Of these tumor cells, the sensitive cells (400 cells) and the resistant cells (600 cells) were each incubated in 10 ml of Eagle's MEM medium containing 10% bovine serum for 24 hours, and then each of the test drugs indicated in Table 6 was added. Thereafter, the incubation was carried out for 9 days. The concentration (IC50 : micrograms/ml) of the test drug required to inhibit 50% of the colony formation (proliferation) of the tumor cells was calculated.
(§3) (A) Chinese hamster V79 cells
(§4) As anti-cancer agents, there were used adriamycin (ADM), aclarubicin (ACR), actinomycin D (ACD), 5-fluorouracil (5-FU), cytarabin (Ara-C), cisplatin (CDDP), methotrexate (MTX), mitomycin C (MMC), nimustine (ACNU), mitoxantrone, etoposide ([…]), vincristine (VCR), bleomycin (BLM) and peplomycin (PEP). For the sensitive cells, the anti-cancer agents were used in combination with 10 micrograms/ml of the malate of formula (I), and for the resistant cells, the anti-cancer agents were used in combination with the malate of formula (I) 3 micrograms/ml, 5 micrograms/ml, and 10 micrograms/ ml.

[2] = tested on: PLC/S; assay: Colony formation (proliferation) inhibition, sensitive human hepatoma cells (A-I Part 1); format: cell-based; details: Homo sapiens, 216 h; PLC/S; 9 days; Table 1; read-out: IC50
Procedure: (§5) Sensitive cell line V79/S and ADM-resistant cell line V79/ADM of the Chinese hamster were used, and sensitive cell line PLC/S and cholchicin-resistant cell line PLC/Col, as human hepatoma cells.
(§6) The sensitive cell lines (400 cells) or the resistant cell lines (600 cells) were each incubated for 24 hours in 10 ml of Eagle's MEM medium containing 10% bovine serum. Each of the drugs indicated in Table 1 below was dissolved in ethanol, and 50 microliters of the resulting solution was added to the medium. The incubation was further carried out for 9 days. The concentration of the drug which inhibits 50% of the colony formation (proliferation) of the tumor cells was calculated.
(§7) V79/S and V79/ADM were tested by using all of the drugs described above, but PLC/S and PLC/Col were tested by using only the malate of formula (I), adriamycin and peplomycin.
(§8) The concentrations (micrograms/ml) required to inhibit 50% of the proliferation of the tumor cells, expressed by IC50, are shown in Table 1.

[3] = tested on: PLC/Col; assay: Anti-cancer activity potentiating action, colony formation, PLC/Col resistant cells (A-III); format: cell-based, human; details: Homo sapiens; PLC/Col; alone; Table 7; read-out: IC50, anti-cancer agent alone
Procedure: as §1, §2
(§9) As anti-cancer agents, adriamycin (ADM) and peplomycin (PEP) were used in combination with the malate of formula (I) (5 micrograms/ml).

[4] = tested on: PLC/S; assay: Anti-cancer activity potentiating action, colony formation, PLC/S parent cells (A-III); format: cell-based, human; details: Homo sapiens; PLC/S; alone; Table 7; read-out: IC50, anti-cancer agent alone
Procedure: as §1, §2, §9

[5] = tested on: B16 melanoma cells; assay: Life prolongation of BDF1 mice with B16 melanoma (A-II Part 1); format: in vivo, mouse (male BDF1); details: 5 mg/kg i.p., three times every 4 days
Procedure: Three to eight male BDF1 mice having a body weight of 20±3 g were used, and B16 melanoma cells were selected as tumor cells. The melanoma cells were homogenized, and the homogenate was transplanted subcutaneously to the mice in an amount of 0.5 ml/mouse. After 7 days, the malate of formula (I) in accordance with this invention and an anti-cancer agent, neocartinostatin (NCS), were intraperitoneally administered either singly or in combination three times every 4 days in a dose of 5 mg/kg and 0.45 mg/kg for each time. The life prolonging rate of the mice was determined by the treated group/non-treated control group (T/C %).

[6] = tested on: V79/ADM; assay: Anti-cancer activity potentiating action, colony formation, V79/ADM resistant cells (A-III); format: cell-based, Chinese hamster; details: Cricetulus griseus; V79/ADM; alone; Table 6; read-out: IC50, anti-cancer agent alone
Procedure: as §1, §2, §3, §4

[7] = tested on: PLC/Col; assay: Colony formation (proliferation) inhibition, colchicin-resistant human hepatoma cells (A-I Part 1); format: cell-based; details: Homo sapiens, 216 h; PLC/Col; 9 days; Table 1; read-out: IC50
Procedure: as §5, §6, §7, §8

[8] = tested on: V79/ADM; assay: Colony formation (proliferation) inhibition, ADM-resistant Chinese hamster cells (A-I Part 1); format: cell-based; details: Cricetulus griseus, 216 h; V79/ADM; 9 days; Table 1; read-out: IC50
Procedure: as §5, §6, §7, §8

[9] = tested on: V79/S; assay: Colony formation (proliferation) inhibition, sensitive Chinese hamster cells (A-I Part 1); format: cell-based; details: Cricetulus griseus, 216 h; V79/S; 9 days; Table 1; read-out: IC50
Procedure: as §5, §6, §7, §8

[10] = Acute toxicity test in mice, oral; format: in vivo, mouse; details: oral, 2,000 mg/kg
Procedure: Using mice, the malate of formula (I) obtained as above was tested for toxicity. […] Toxicity was neither noted.

[11] = tested on: clinically isolated human cancer cells (lung adenocarcinoma, lung squamous cell carcinoma, osteosarcoma, ovarian carcinoma); assay: Anti-tumor activity on clinically isolated human cancer cells, morphological changes (A-I Part 2); format: cell-based; details: 3 or 30 μg/ml (3 μg/ml for 3 examples, 30 μg/ml for 5)
Procedure: Lung adenocarcinoma, lung squamous cell carcinoma, osteosarcoma and ovarian carcinoma were selected as clinically isolated human cancer cells, and the anti-tumor activities of various drugs were examined. Specifically, various tumor tissues were individually cut to thin pieces by a razor, and by washing in saline by using a 1 mm mesh, the connective tissues were removed. The resulting solution was centrifuged at 1000 rpm for 1 minute to remove necrotizing substances. Washing with saline gave tumor cells.
They were incubated at 37° for 4 to 8 hours. Thereafter, pumping was carried out to disperse the tissue pieces. Then, centrifugation at 1000 rpm for 5 minutes, cell coating and Giemsa staining were performed. The anti-tumor activity of each drug was examined on the basis of observation of the morphological changes of the tumor cells under a microscope.
The experiment was conducted on two examples of each tumor cells (total 8 examples).

[12] = tested on: Meth-A; assay: Tumor proliferation inhibiting activity, Meth-A (A-IV); format: in vivo, BALB/c rats; details: for Number of surviving animals: 16 days later; for T/C (tumor weight) / Tumor weight mean ± S.D.: day 16
Procedure: Female BALB/c rats (7 weeks old), 8 per group, were used. Tumor cells (Meth-A) induced by methyl cholanthrene were transplanted intraperitoneally to the rats, and then the malate of formula (I) was administered intraperitoneally to the rats. The proliferation inhibiting activity of the malate was examined by comparing the weight of the tumor cells with that of the tumor cells in the non-treated control group.
The dose of the malate of formula (I) was 1.25, 2.5, 5.0, and 10.0 mg/kg/day. Mitomycin C (MMC) was administered as another anti-cancer agent. The weight of the tumor cells was measured, and the proliferation inhibiting activity was determined.
The weight (g) of the tumor with respect to that of the tumor in the control group (T/C, %) after 16 days from the transplantation of the tumor cells, and the number of surviving rats after 16 days are shown in Table 8.

[13] = Particle charge / formation of lipid emulsion; format: physicochemical
From the text: To secure fine particles of 1 micron or below in size which can actually be administered as a lipid emulsion, the particles should have a charge within the range of +20 mV to +50 mV.

[14] = 1.25 mg/kg/day i.p., days 1, 3, 5
[15] = 2.5 mg/kg/day i.p., days 1, 3, 5

Compound: COc1ccc(CNCCN(CC=C(C)CCC=C(C)CCC=C(C)CCC=C(C)CCC=C(C)CCC=C(C)CCC=C(C)CCC=C(C)CCC=C(C)C)Cc2ccc(OC)c(OC)c2)cc1OC [Compound (I), N-solanesyl-N,N'-bis(3,4-dimethoxybenzyl)ethylenediamine malate]
- IC50 [1]: 11.5 µg/mL
- IC50 [2]: 6.8 µg/mL
- IC50 [3]: 1.7 µg/mL
- IC50 [4]: 6.8 µg/mL
- T/C (life prolonging rate at M.S.T.) [5]: 165%
- IC50 [6]: 3 µg/mL
- IC50 [7]: 1.7 µg/mL
- IC50 [8]: 3 µg/mL
- IC50 [9]: 11.5 µg/mL
- Acute toxicity, abnormality in mice [10]: no abnormality was found
- Efficacy ratio (rated significant by Fisher's test) [11]: 5/8
- Number of surviving animals [12, 14]: 8/8
- T/C (tumor weight) [12, 14]: 75%
- Tumor weight mean ± S.D. [12, 14]: 1.255 ± 0.533 g
- Number of surviving animals [12, 15]: 8/8
- T/C (tumor weight) [12, 15]: 79%
- Tumor weight mean ± S.D. [12, 15]: 1.327 ± 0.350 g
- Number of surviving animals ([12]; 5.0 mg/kg/day i.p., day 1): 8/8
- T/C (tumor weight) ([12]; 5.0 mg/kg/day i.p., day 1): 83%
- Tumor weight mean ± S.D. ([12]; 5.0 mg/kg/day i.p., day 1): 1.389 ± 0.644 g
- Number of surviving animals ([12]; 10.0 mg/kg/day i.p., day 1): 8/8
- T/C (tumor weight) ([12]; 10.0 mg/kg/day i.p., day 1): 65%
- Tumor weight mean ± S.D. ([12]; 10.0 mg/kg/day i.p., day 1): 1.091 ± 0.659 g

Compound: COc1ccc(CNCCN(CC=C(C)CCC=C(C)CCC=C(C)CCC=C(C)CCC=C(C)CCC=C(C)CCC=C(C)CCC=C(C)CCC=C(C)C)Cc2ccc(OC)c(OC)c2)cc1OC [compound (II), N-solanesyl-N,N'-bis(3,4-dimethoxybenzyl)ethylenediamine]
- Formation of a lipid emulsion [13]: cannot be formed into a lipid emulsion
- Particle charge within +20 mV to +50 mV / aggregation ([13]; lipid emulsion particles): particle aggregation occurs
